This is an account of results in PubChem BioAssay (NCI).

As a reminder, the TGI is the concentration giving total growth inhibition. A low value points to greater sensitivity of the cells. In general, GI50 refers to the concentration that inhibits growth by half.

SMILES strings stand for the structures.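 Exposure lasted 48 hours, with cells grown in 96-well plates and compounds tested at five concentrations. GI50: concentration for 50% inhibition of growth. At the TGI there is no net growth.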

Among the test systems are HCT-15 colon; A498 renal; CAKI-1 renal; K-562 leukemia; UACC-62 melanoma; OVCAR-3 ovarian; BT-549 breast; SN12C renal; SW-620 colon; NCI-H522 lung.
Holding throughout (assay): DTP human tumour cell line panel, 48 h

Regarding `CC(C)(C)c1nc2c(o1)C(=Nc1ccc(F)cc1)c1ccccc1C2=O`, the TGI was 33.8 µM in the assay with HCT-15 colon; 50.9 µM in the assay on A498 renal; greater than 100 µM in the assay on CAKI-1 renal; greater than 100 µM in the assay on K-562 leukemia; 6.62 µM in the assay on UACC-62 melanoma; 7.62 µM in the assay with OVCAR-3 ovarian. Besides, the concentration for total growth inhibition (TGI) in the assay with BT-549 breast was determined as 12.9 µM; in the assay on SN12C renal, 23.8 µM; in the assay with SW-620 colon, 30 µM; in the assay with NCI-H522 lung, 20.5 µM.
Turning to `CCCSc1cc(Cl)nc(N)n1`, the GI50 was greater than 100 µM in the assay with HCT-15 colon; greater than 100 µM in the assay on A498 renal; 90.7 µM in the assay on CAKI-1 renal; greater than 100 µM in the assay with K-562 leukemia; greater than 100 µM in the assay with UACC-62 melanoma; greater than 100 µM with OVCAR-3 ovarian. For the same compound, the GI50 in the assay on BT-549 breast was 65.1 µM; in the assay with SN12C renal it was greater than 100 µM; in the assay with SW-620 colon, greater than 100 µM; in the assay on NCI-H522 lung, greater than 100 µM. In addition, the total growth inhibition concentration (TGI) with HCT-15 colon, with A498 renal, in the assay on CAKI-1 renal, with K-562 leukemia, with UACC-62 melanoma and in the assay with OVCAR-3 ovarian was greater than 100 µM each time. Besides, the TGI with BT-549 breast, in the assay with SN12C renal, in the assay on SW-620 colon and with NCI-H522 lung was greater than 100 µM throughout.
For `O=P(O)(O)C(O)(Cn1ccnc1)P(=O)(O)O`, the GI50 with HCT-15 colon is greater than 100 µM; in the assay on A498 renal, greater than 62.8 µM; in the assay with CAKI-1 renal it was greater than 52.9 µM; in the assay on K-562 leukemia, greater than 100 µM; in the assay with UACC-62 melanoma, greater than 65.2 µM; with OVCAR-3 ovarian, greater than 66.1 µM. In addition, the GI50 in the assay with BT-549 breast was greater than 34.4 µM; in the assay on SN12C renal, greater than 57.7 µM; in the assay with SW-620 colon, greater than 100 µM; with NCI-H522 lung it was greater than 100 µM. Besides, the total growth inhibition concentration (TGI) in the assay on HCT-15 colon, with A498 renal, in the assay on CAKI-1 renal, in the assay on K-562 leukemia, in the assay with UACC-62 melanoma and in the assay on OVCAR-3 ovarian was greater than 100 µM each time. In addition, the total growth inhibition concentration (TGI) in the assay on BT-549 breast, in the assay with SN12C renal, with SW-620 colon and with NCI-H522 lung was greater than 100 µM in each case.
Turning to `CS(=O)(=O)Nc1ccc(-c2ccc3c(NC(=O)C4CC4)n[nH]c3c2)cc1`, the GI50 in the assay on HCT-15 colon is greater than 25 µM; with A498 renal it was greater than 25 µM; in the assay with CAKI-1 renal it was greater than 25 µM; with K-562 leukemia, 13.3 µM; with UACC-62 melanoma it was 22.7 µM; with OVCAR-3 ovarian it was greater than 21.2 µM. In addition, the GI50 is greater than 19.2 µM in the assay with BT-549 breast, greater than 25 µM in the assay with SN12C renal, greater than 25 µM with SW-620 colon and greater than 25 µM in the assay on NCI-H522 lung. For the same compound, the total growth inhibition concentration (TGI) in the assay on HCT-15 colon, in the assay with A498 renal, in the assay with CAKI-1 renal, with K-562 leukemia, with UACC-62 melanoma and in the assay with OVCAR-3 ovarian was greater than 25 µM each time. In addition, the TGI in the assay on BT-549 breast, in the assay on SN12C renal, with SW-620 colon and with NCI-H522 lung was greater than 25 µM in each case.
On to `C=C1C(=O)O[C@H]2[C@H]1CC/C(COC(=O)c1cc3cc(OC)ccc3[nH]1)=C\CC[C@@]1(C)O[C@@H]21`, for which the 50% growth inhibitory concentration (GI50) in the assay on HCT-15 colon was 0.323 µM; with A498 renal, 1.63 µM; in the assay with CAKI-1 renal, 1.71 µM; in the assay with K-562 leukemia, 0.562 µM; with UACC-62 melanoma, 1.38 µM; with OVCAR-3 ovarian, 0.935 µM. Moreover, the GI50 with BT-549 breast is 1.06 µM; in the assay on SN12C renal it was 1.77 µM; in the assay with SW-620 colon, 0.647 µM; with NCI-H522 lung, 0.701 µM. Besides, the TGI in the assay with HCT-15 colon was found to be 1.6 µM; in the assay with A498 renal, 3.04 µM; in the assay on CAKI-1 renal, 3.48 µM; in the assay on K-562 leukemia, 10.8 µM; in the assay on UACC-62 melanoma, 2.72 µM; in the assay on OVCAR-3 ovarian it was 2.15 µM. In addition, the total growth inhibition concentration (TGI) in the assay on BT-549 breast amounted to 2.86 µM; with SN12C renal, 3.52 µM; in the assay with SW-620 colon it was 2.34 µM; in the assay with NCI-H522 lung it was 2.28 µM.
As to `COc1ccc(C2C(C#N)=C(N)OC3=C2CCCc2ccc(F)cc23)cc1OC` (stereo not given), the GI50 in the assay with HCT-15 colon was 17.8 µM; in the assay on A498 renal, 4.22 µM; with CAKI-1 renal, 34.2 µM; in the assay on K-562 leukemia, 26.6 µM; in the assay with UACC-62 melanoma, 21.6 µM; in the assay on OVCAR-3 ovarian, 19.3 µM. Further, the GI50 was 19.4 µM in the assay on BT-549 breast, 19.7 µM with SN12C renal, 12.5 µM in the assay with SW-620 colon and 17.8 µM in the assay with NCI-H522 lung. For the same compound, the TGI in the assay with HCT-15 colon was 38 µM; with A498 renal, 21.9 µM; in the assay on CAKI-1 renal, 65.3 µM; in the assay with K-562 leukemia it was greater than 100 µM; in the assay on UACC-62 melanoma it was 47 µM; in the assay with OVCAR-3 ovarian it was 46.2 µM. The concentration for total growth inhibition (TGI) was found to be 42.5 µM in the assay with BT-549 breast, 39.5 µM in the assay with SN12C renal, 30.3 µM with SW-620 colon and 37.6 µM in the assay on NCI-H522 lung.
